Results published in patent US5753715A, “2-disubstituted cyclohexenyl and cyclohexyl antimicrobial agents” (Ortho Pharmaceutical Corporation, priority 1995, dated 1998).
Converted amounts (≈) assume the structure as drawn.

Columns and labels:
E. coli oc2605 = assay: MIC, microdilution broth method (NCCLS); assay type: cell-based; conditions: cation supplemented Mueller Hinton broth, 35° C., 16-20 hours; unit assumed
Protocol: (§1) The in vitro antimicrobial spectrum of the compounds of the present invention were determined by the microdilution broth method following the test method from the National Committee for […] (NCCLS ). The method is described in the NCCLS Document M7-A2, Vol. 10, No.8 "Methods for Dilution Antimicrobial Susceptibility Test for Bacteria that Grow Aerobically--Second Edition".
(§2) In this method two fold serial dilutions of drug in cation supplemented Mueller Hinton broth are added to wells in microdilution trays. The test organisms are prepared by adjusting the turbidity of actively growing broth cultures so that the final concentration of test organism after it is added to the wells is approximately 5×10^4 colony forming units per well delivered by the Steers replicating device.
(§3) Following inoculation of the microdilution trays, the trays are incubated at 35° C. for 16-20 hours and then read. […] The amount of growth in the wells containing the test compound is compared with the amount of growth in the growth-control wells used in each tray.

MRSA oc667 = assay: MIC, microdilution broth method (NCCLS); assay type: cell-based; conditions: cation supplemented Mueller Hinton broth, 35° C., 16-20 hours; unit assumed
Protocol: as §1, §2, §3

Ps. aerug. oc27853 = assay: MIC, microdilution broth method (NCCLS); assay type: cell-based; conditions: cation supplemented Mueller Hinton broth, 35° C., 16-20 hours; unit assumed
Protocol: as §1, §2, §3

S. aureus ATCC 29213 = assay: MIC, microdilution broth method (NCCLS); assay type: cell-based; conditions: cation supplemented Mueller Hinton broth, 35° C., 16-20 hours; unit assumed
Protocol: as §1, §2, §3

E. faecalis oc3041 = assay: MIC, microdilution broth method (NCCLS); assay type: cell-based; conditions: cation supplemented Mueller Hinton broth, 35° C., 16-20 hours; unit assumed
Protocol: as §1, §2, §3

E. coli oc2530 = assay: MIC, microdilution broth method (NCCLS); assay type: cell-based; conditions: cation supplemented Mueller Hinton broth, 35° C., 16-20 hours; unit assumed
Protocol: as §1, §2, §3

C. albicans 10231 = assay: MIC, microdilution broth method (NCCLS); assay type: cell-based; conditions: cation supplemented Mueller Hinton broth, 35° C., 16-20 hours; unit assumed
Protocol: as §1, §2, §3

E. faecalis ACTCC 29212 = assay: MIC, microdilution broth method (NCCLS); assay type: cell-based; conditions: cation supplemented Mueller Hinton broth, 35° C., 16-20 hours; unit assumed
Protocol: as §1, §2, §3

Ps. aerug. oc161 = assay: MIC, microdilution broth method (NCCLS); assay type: cell-based; conditions: cation supplemented Mueller Hinton broth, 35° C., 16-20 hours; unit assumed
Protocol: as §1, §2, §3

C. tropicalis = assay: MIC, microdilution broth method (NCCLS); assay type: cell-based; conditions: cation supplemented Mueller Hinton broth, 35° C., 16-20 hours; unit assumed
Protocol: as §1, §2, §3

MRSA oc2089 = assay: MIC, microdilution broth method (NCCLS); assay type: cell-based; conditions: cation supplemented Mueller Hinton broth, 35° C., 16-20 hours; unit assumed
Protocol: as §1, §2, §3

K. pneum. oc1943 = assay: MIC, microdilution broth method (NCCLS); assay type: cell-based; conditions: cation supplemented Mueller Hinton broth, 35° C., 16-20 hours; unit assumed
Protocol: as §1, §2, §3

E. faecium oc2993 = assay: MIC, microdilution broth method (NCCLS); assay type: cell-based; conditions: cation supplemented Mueller Hinton broth, 35° C., 16-20 hours; unit assumed
Protocol: as §1, §2, §3

A. niger 10578 = assay: MIC, microdilution broth method (NCCLS); assay type: cell-based; conditions: cation supplemented Mueller Hinton broth, 35° C., 16-20 hours; unit assumed
Protocol: as §1, §2, §3

S. epi oc2603 = assay: MIC, microdilution broth method (NCCLS); assay type: cell-based; design: unit not given here; conditions: cation supplemented Mueller Hinton broth, 35° C., 16-20 hours
Protocol: as §1, §2, §3

Kinase A and SpoOF = molecular target: T1, Kinase A and SpoOF (Bacillus subtilis, UniProt P16497); assay: Autophosphorylation of Kinase A and Transphosphorylation of SPoOF Assay; assay type: biochemical; conditions: inhibition of Kinase A autophosphorylation / SpoOF transphosphorylation, [32P]ATP, gel, phosphoimager
T1 sequence (P16497 1-606): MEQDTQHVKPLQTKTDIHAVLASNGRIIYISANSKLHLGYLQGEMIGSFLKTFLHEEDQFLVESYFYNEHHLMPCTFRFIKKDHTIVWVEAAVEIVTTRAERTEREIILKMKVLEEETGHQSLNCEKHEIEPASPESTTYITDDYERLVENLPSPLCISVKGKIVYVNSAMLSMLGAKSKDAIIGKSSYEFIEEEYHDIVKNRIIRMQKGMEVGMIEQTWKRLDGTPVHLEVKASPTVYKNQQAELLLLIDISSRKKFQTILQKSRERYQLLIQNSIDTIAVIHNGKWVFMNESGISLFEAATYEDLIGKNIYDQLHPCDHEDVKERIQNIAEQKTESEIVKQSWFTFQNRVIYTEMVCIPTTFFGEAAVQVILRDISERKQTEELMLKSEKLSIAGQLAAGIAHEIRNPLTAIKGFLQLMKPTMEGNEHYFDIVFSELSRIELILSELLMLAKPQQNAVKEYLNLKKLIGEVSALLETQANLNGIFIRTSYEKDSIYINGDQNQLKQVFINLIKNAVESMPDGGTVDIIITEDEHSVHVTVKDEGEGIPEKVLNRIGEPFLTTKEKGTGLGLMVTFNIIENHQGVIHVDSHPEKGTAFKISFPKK

| SMILES | MIC E. coli oc2605 (E. coli oc2605) | MIC MRSA oc667 (MRSA oc667) | MIC Ps. aerug. oc27853 (Ps. aerug. oc27853) | MIC S. aureus ATCC 29213 (S. aureus ATCC 29213) | MIC E. faecalis oc3041 (E. faecalis oc3041) | MIC E. coli oc2530 (E. coli oc2530) | MIC C. albicans 10231 (C. albicans 10231) | MIC E. faecalis ACTCC 29212 (E. faecalis ACTCC 29212) | MIC Ps. aerug. oc161 (Ps. aerug. oc161) | MIC C. tropicalis (C. tropicalis) | MIC MRSA oc2089 (MRSA oc2089) | MIC K. pneum. oc1943 (K. pneum. oc1943) | MIC E. faecium oc2993 (E. faecium oc2993) | MIC A. niger 10578 (A. niger 10578) | MIC S. epi oc2603 (S. epi oc2603) | IC50 (Kinase A and SpoOF) | IC min (Kinase A and SpoOF) |
| --- | --- | --- | --- | --- | --- | --- | --- | --- | --- | --- | --- | --- | --- | --- | --- | --- | --- |
| NCCc1ccc(OCCC2(Cc3ccccc3)C=CCCC2)cc1 (centres unmarked) [Compound 17] | 64 µg/mL (≈ 191 µM) | 8 µg/mL (≈ 23.8 µM) | > 64 µg/mL | 8 µg/mL (≈ 23.8 µM) | 8 µg/mL (≈ 23.8 µM) | 8 µg/mL (≈ 23.8 µM) | ≤ 16 µg/mL | 8 µg/mL (≈ 23.8 µM) | > 64 µg/mL | 4 µg/mL (≈ 11.9 µM) | 8 µg/mL (≈ 23.8 µM) | > 64 µg/mL | 8 µg/mL (≈ 23.8 µM) | 4 µg/mL (≈ 11.9 µM) | 8 | 38.3 mM | 15.6 mM |
| CNCCCc1ccc(OCCC2(c3ccc(F)cc3)C=CCCC2)cc1 (centres unmarked) [Compound 24] | > 64 µg/mL | 8 µg/mL (≈ 21.8 µM) | > 128 µg/mL | 8 µg/mL (≈ 21.8 µM) | 8 µg/mL (≈ 21.8 µM) | 8 µg/mL (≈ 21.8 µM) | 8 µg/mL (≈ 21.8 µM) | 8 µg/mL (≈ 21.8 µM) | > 128 µg/mL | 8 µg/mL (≈ 21.8 µM) | 8 µg/mL (≈ 21.8 µM) | > 128 µg/mL | 8 µg/mL (≈ 21.8 µM) | 4 µg/mL (≈ 10.9 µM) | 8 | 185 mM | 125 mM |
| Clc1ccc(CC2(CCOc3ccc(CCNCCN4CCCC4)cc3)C=CCCC2)cc1 (centres unmarked) [Compound 34] | 8 µg/mL (≈ 17.1 µM) | 4 µg/mL (≈ 8.56 µM) | > 64 µg/mL | 4 µg/mL (≈ 8.56 µM) | 4 µg/mL (≈ 8.56 µM) | 4 µg/mL (≈ 8.56 µM) | 8 µg/mL (≈ 17.1 µM) | 4 µg/mL (≈ 8.56 µM) | > 64 µg/mL | ≤ 4 µg/mL | 4 µg/mL (≈ 8.56 µM) | 32 µg/mL (≈ 68.5 µM) | 4 µg/mL (≈ 8.56 µM) | 8 µg/mL (≈ 17.1 µM) | 4 | 295 mM | 125 mM |
| COc1ccc(CC2(CCOc3ccc(CCN)cc3)C=CCCC2)cc1 (centres unmarked) [Compound 41] | > 64 µg/mL | 8 µg/mL (≈ 21.9 µM) | > 128 µg/mL | 8 µg/mL (≈ 21.9 µM) | 8 µg/mL (≈ 21.9 µM) | 4 µg/mL (≈ 10.9 µM) | 8 µg/mL (≈ 21.9 µM) | 8 µg/mL (≈ 21.9 µM) | > 128 µg/mL | 4 µg/mL (≈ 10.9 µM) | 8 µg/mL (≈ 21.9 µM) | > 128 µg/mL | 8 µg/mL (≈ 21.9 µM) | 2 µg/mL (≈ 5.47 µM) | 8 | 82.5 mM | 31.25 mM |
| NCCCc1cnc(NCCC2(Cc3ccccc3)C=CCCC2)nc1 (centres unmarked) [Compound 49] | 128 µg/mL (≈ 365 µM) | 32 µg/mL (≈ 91.3 µM) | 128 µg/mL (≈ 365 µM) | 64 µg/mL (≈ 183 µM) | 32 µg/mL (≈ 91.3 µM) | 16 µg/mL (≈ 45.6 µM) | 32 µg/mL (≈ 91.3 µM) | 32 µg/mL (≈ 91.3 µM) | 128 µg/mL (≈ 365 µM) | 16 µg/mL (≈ 45.6 µM) | 32 µg/mL (≈ 91.3 µM) | 128 µg/mL (≈ 365 µM) | 32 µg/mL (≈ 91.3 µM) | 16 µg/mL (≈ 45.6 µM) | 16 | 162 mM |  |
| COc1ccc(CC2(CCOc3ccc(CCCNC(=N)N)cc3)C=CCCC2)cc1 (centres unmarked) [Compound 53] | > 64 µg/mL | 8 µg/mL (≈ 19 µM) | > 128 µg/mL | 4 µg/mL (≈ 9.49 µM) | 8 µg/mL (≈ 19 µM) | 16 µg/mL (≈ 38 µM) | 4 µg/mL (≈ 9.49 µM) | 4 µg/mL (≈ 9.49 µM) | > 128 µg/mL | 2 µg/mL (≈ 4.74 µM) | 4 µg/mL (≈ 9.49 µM) | > 128 µg/mL | 8 µg/mL (≈ 19 µM) | 8 µg/mL (≈ 19 µM) | 8 | 113 mM |  |
| NCCc1ccc(OCCC2(Cc3cc(Cl)cc(Cl)c3)C=CCCC2)cc1 (centres unmarked) [Compound 59] | ≥ 64 µg/mL | 8 µg/mL (≈ 19.8 µM) | > 128 µg/mL | 8 µg/mL (≈ 19.8 µM) | 8 µg/mL (≈ 19.8 µM) | 16 µg/mL (≈ 39.6 µM) | 8 µg/mL (≈ 19.8 µM) | 8 µg/mL (≈ 19.8 µM) | > 128 µg/mL | 8 µg/mL (≈ 19.8 µM) | 8 µg/mL (≈ 19.8 µM) | > 128 µg/mL | 8 µg/mL (≈ 19.8 µM) | 44 µg/mL (≈ 109 µM) | 8 | 46.1 mM |  |
